Results: ChEMBL document CHEMBL4483862, “Open-source discovery of chemical leads for next-generation chemoprotective antimalarials” (2018)

Test system: Plasmodium berghei
Test: Luciferase/luciferin-expressing antifolate-resistant parasites were used to infect a culture of HepG2 cells that were pre-incubated with compounds. Infected hepatocytes emit light due to the luciferase reaction. Assay results are presented as the percent inhibition of light emission compared to control. […]
Type: functional
Details: sporozoite; for IC90: read-out: LUCIFERASE INFECTION ASSAY - IC90
[1] = read-out: LUCIFERASE INFECTION ASSAY - IC50

Row | SMILES | IC90 [µM] | IC50 [1] [µM] | other results
1 | CCOC(=O)c1cnc(-c2ccccn2)nc1O | > 13.5 |  | IC50 (HEPG2TOX_HILL_SLOPE 12.4, HEPG2TOX_R_SQUARED 0.686, PBLUC_HILL_SLOPE 4.24, PBLUC_R_SQUARED 0.376, read-out: LUCIFERASE INFECTION ASSAY - IC50): 8.76 µM
2 | Cc1sc2ncnc(SCC(=O)NC3CCN(Cc4ccccc4)C3)c2c1C (stereo not given) | > 10 | > 10 | 
3 | COCc1c(C(=O)Nc2nnc(C3CCCCC3)s2)oc2ccccc12 | > 10 | > 10 | 
4 | CCCN1C(=O)C(=O)N(CN2CCc3sccc3C2)C1=O | > 2 | > 2 | 
5 | CC(C)CC(NC(=O)Cc1ccsc1)C(=O)N/N=C/c1cccs1 (stereo not given) | > 9.08 | > 9.08 | 
6 | Cc1ccc(Nc2nc(C[N+]3(Cc4csc(Nc5ccc(C)cc5)n4)CCN(Cc4ccc(C#N)cc4)CC3)cs2)cc1 | > 10 |  | IC50 (HEPG2TOX_HILL_SLOPE 1.4, HEPG2TOX_R_SQUARED 0.751, PBLUC_HILL_SLOPE 1.26, PBLUC_R_SQUARED 0.51, read-out: LUCIFERASE INFECTION ASSAY - IC50): 1.97 µM
7 | CCC(C)NC(=O)c1c(NC(=O)c2ccccc2Cl)nc2ccc(C)cn12 (stereo not given) | 3.78 |  | IC50 (HEPG2TOX_HILL_SLOPE 2.82, HEPG2TOX_R_SQUARED 0.923, PBLUC_HILL_SLOPE 8.99, PBLUC_R_SQUARED 0.855, read-out: LUCIFERASE INFECTION ASSAY - IC50): 2.96 µM
8 | Cc1nn(Cc2ccc(C(=O)NC3CC3)cc2)c(C)c1[N+](=O)[O-] | > 10 |  | IC50 (PBLUC_HILL_SLOPE 1.06, PBLUC_R_SQUARED 0.0833, read-out: LUCIFERASE INFECTION ASSAY - IC50): > 10 µM
9 | N=C(N)N/N=C\c1cccc2ccccc12 | > 15.5 |  | IC50 (PBLUC_HILL_SLOPE 1.61, PBLUC_R_SQUARED 0.436, read-out: LUCIFERASE INFECTION ASSAY - IC50): 6.92 µM
10 | Cc1cc(Nc2nc3ccccc3nc2N2CCN(/C=C/c3ccccc3)CC2)n(-c2ccccc2)n1 | > 10 | > 10 | 
11 | CN(CCCNC(=O)CSc1nnc(-c2c[nH]c3ccccc23)n1C1CC1)c1ccccc1 | 9.32 |  | IC50 (HEPG2TOX_HILL_SLOPE 3.48, HEPG2TOX_R_SQUARED 0.658, PBLUC_HILL_SLOPE 4.72, PBLUC_R_SQUARED 0.65, read-out: LUCIFERASE INFECTION ASSAY - IC50): 5.85 µM
12 | CC(C)N(Cc1ccccc1)C(=S)NC(=O)C1(C)CC1(Cl)Cl (stereo not given) | > 10 | > 10 | 
13 | O=S(=O)(Oc1cncc(Cl)c1)c1cc(Cl)cc(Cl)c1 | > 9.75 |  | IC50 (PBLUC_HILL_SLOPE 1.51, PBLUC_R_SQUARED 0.362, read-out: LUCIFERASE INFECTION ASSAY - IC50): 8.89 µM
14 | CCOC(=O)c1c(C)[nH]c(C(=O)CSc2nnc(C3COc4ccccc4O3)n2-c2ccccc2)c1C (stereo not given) | > 10 | > 10 | 
15 | O=S(=O)(c1ccc2oc(Nc3ccc(Nc4ccccc4)cc3)nc2c1)N1CCOCC1 | > 10 |  | IC50 (FFLUC_HILL_SLOPE 13.7, FFLUC_R_SQUARED 0.693, PBLUC_HILL_SLOPE 9.99, PBLUC_R_SQUARED 0.314, read-out: LUCIFERASE INFECTION ASSAY - IC50): 9.23 µM
16 | CC(C)(C)c1cc(NC(=O)CN2CCN(CCOc3ccccc3)CC2)n(-c2ccccc2)n1 | > 10 |  | IC50 (PBLUC_HILL_SLOPE 3.74, PBLUC_R_SQUARED 0.753, read-out: LUCIFERASE INFECTION ASSAY - IC50): 6.22 µM
17 | COc1cc(C)c2c(c1)C=CC1C2CCC2(C)C(O)CCC12 (stereo not given) | > 11.1 | > 11.1 | 
18 | CCCCc1c(O)cc2n(c1=O)-c1ccc(Cl)cc1C2(C)C | > 10.4 |  | IC50 (HEPG2TOX_HILL_SLOPE 9.65, HEPG2TOX_R_SQUARED 0.788, PBLUC_HILL_SLOPE 4.5, PBLUC_R_SQUARED 0.532, read-out: LUCIFERASE INFECTION ASSAY - IC50): 7.82 µM
19 | c1cc(CNc2ncnc3nc[nH]c23)cc(COCc2ccco2)c1 | > 10 |  | IC50 (HEPG2TOX_HILL_SLOPE 6.82, HEPG2TOX_R_SQUARED 0.307, PBLUC_HILL_SLOPE 1.97, PBLUC_R_SQUARED 0.21, read-out: LUCIFERASE INFECTION ASSAY - IC50): 6.9 µM
20 | Cn1c(N)c(C(=O)COC(=O)C2(c3ccccc3F)CCCC2)c(=O)n(C)c1=O | > 10 | > 10 | 
21 | COC(=O)c1occc1/C=C/C(=O)c1ccc2c(c1)CCC2 | > 10 | > 10 | 
22 | O=C(COC(=O)c1ccc2ccccc2n1)NCCc1ccccc1 | > 10 | > 10 | 
23 | CN1/C(=C\C=N\NC(=O)c2ccccc2NS(=O)(=O)c2cccs2)C(C)(C)c2ccccc21 | 1.2 |  | IC50 (HEPG2TOX_HILL_SLOPE 16.9, HEPG2TOX_R_SQUARED 0.641, PBLUC_HILL_SLOPE 12.4, PBLUC_R_SQUARED 0.659, read-out: LUCIFERASE INFECTION ASSAY - IC50): 1.01 µM

Row | SMILES | IC90 [µM] | IC50 [1] [µM] | other results
24 | COc1ccc(-c2cc(NC(=O)C(C)NS(=O)(=O)c3ccc(C)cc3)ccc2OC(F)F)cc1 (stereo not given) | > 10 | 8.3 | 
25 | CN(/N=C/c1cc(Cl)cc(Cl)c1O)c1ccc(C(F)(F)F)cc1[N+](=O)[O-] | > 8.09 | > 8.09 | 
26 | CCN(CC)S(=O)(=O)c1ccc2nnc(Sc3nc(C)nc4sc5c(c34)CCCC5)n2c1 | > 10 | > 10 | 
27 | Clc1ccccc1CNc1ncnc2ccsc12 | > 10 | > 10 | 
28 | CC(C)Oc1cccc(-c2cn3c(-c4ccc(N(C)C)cc4)cnc3cn2)c1 | > 8.86 |  | IC50 (PBLUC_HILL_SLOPE 15, PBLUC_R_SQUARED 0.312, read-out: LUCIFERASE INFECTION ASSAY - IC50): > 8.86 µM
29 | N#Cc1ccnc(N2CCN(c3nc(CSc4ccccc4)nc4sc5c(c34)CCC5)CC2)c1 | > 10 | > 10 | 
30 | C=CCc1ccccc1OCCn1c(C2CC(=O)N(Cc3ccc(F)cc3)C2)nc2ccccc21 (stereo not given) | > 10 |  | IC50 (FFLUC_HILL_SLOPE 11.3, FFLUC_R_SQUARED 0.11, read-out: LUCIFERASE INFECTION ASSAY - IC50): > 10 µM
31 | CC1=NN(c2ccc(C)c(Cl)c2)C(=O)/C1=C\c1ccc2c(c1)OCO2 | > 9.3 | > 9.3 | 
32 | NC(Cc1ccccc1)c1csc(Nc2ccc(-c3ccccc3)nn2)n1 (stereo not given) | 5.82 |  | IC50 (PBLUC_HILL_SLOPE 170, PBLUC_R_SQUARED 0.669, read-out: LUCIFERASE INFECTION ASSAY - IC50): 5.74 µM
33 | C=c1ccccc1=C1NN=C(Sc2cnn(-c3ccc(C(F)(F)F)cn3)c(=O)c2Cl)N1CC | 5.32 |  | IC50 (HEPG2TOX_HILL_SLOPE 11.7, 13.0, HEPG2TOX_R_SQUARED 0.881, 0.478, PBLUC_HILL_SLOPE 8.47, PBLUC_R_SQUARED 0.136, read-out: LUCIFERASE INFECTION ASSAY - IC50): 4.11 µM
34 | C(=N\N1CCN(c2ccccn2)CC1)/C1=C(Sc2nc3ccccc3s2)CCCC1 | > 10 |  | IC50 (HEPG2TOX_HILL_SLOPE 7.72, HEPG2TOX_R_SQUARED 0.819, PBLUC_HILL_SLOPE 7.09, PBLUC_R_SQUARED 0.503, read-out: LUCIFERASE INFECTION ASSAY - IC50): 7.43 µM
35 | COc1cc(OC)c(C2NC(=O)c3ccc(Cl)cc3N2)cc1OC (stereo not given) | > 10 |  | IC50 (HEPG2TOX_HILL_SLOPE 8.48, HEPG2TOX_R_SQUARED 0.352, read-out: LUCIFERASE INFECTION ASSAY - IC50): > 10 µM
36 | CSc1nccc(-c2ccc(S(=O)(=O)n3nc(C)c([N+](=O)[O-])c3C)s2)n1 | > 8.02 | > 8.02 | 
37 | CSC(SC)=C(C#N)S(=O)(=O)C(C)C | > 13.1 | > 13.1 | 
38 | Cc1cccnc1NC(=O)c1ccc(Cl)c(S(=O)(=O)N(Cc2ccccc2)c2ccccc2)c1 | > 10 |  | IC50 (PBLUC_HILL_SLOPE 2.12, PBLUC_R_SQUARED 0.451, read-out: LUCIFERASE INFECTION ASSAY - IC50): 5.79 µM
39 | c1ccc(-c2cc(NCCCn3ccnc3)nc3ccccc23)cc1 | 8.58 |  | IC50 (PBLUC_HILL_SLOPE 4.01, PBLUC_R_SQUARED 0.225, read-out: LUCIFERASE INFECTION ASSAY - IC50): 4.96 µM
40 | NC(CCc1ccccc1)c1csc(Nc2cc(NCCCO)ncn2)n1 (stereo not given) | > 8.58 |  | IC50 (HEPG2TOX_HILL_SLOPE 1.38, HEPG2TOX_R_SQUARED 0.93, PBLUC_HILL_SLOPE 3.41, PBLUC_R_SQUARED 0.149, read-out: LUCIFERASE INFECTION ASSAY - IC50): 6.73 µM
41 | CCCCSc1scc(-c2ccc(Cl)c(Cl)c2)c1C#N | > 9.64 |  | IC50 (HEPG2TOX_HILL_SLOPE 94.8, HEPG2TOX_R_SQUARED 0.896, read-out: LUCIFERASE INFECTION ASSAY - IC50): > 9.64 µM
42 | Cc1ccc(Cn2nc(C)c(/C=C/C(=O)N3CCN(S(=O)(=O)c4cccs4)CC3)c2C)cc1 | > 10 |  | IC50 (HEPG2TOX_HILL_SLOPE 1.48, HEPG2TOX_R_SQUARED 0.941, PBLUC_HILL_SLOPE 12.2, PBLUC_R_SQUARED 0.462, read-out: LUCIFERASE INFECTION ASSAY - IC50): 9.53 µM
43 | O=C(CC(=O)Nc1ccc(Cl)cn1)Nc1ccc(Cl)c(Cl)c1 | 8.05 |  | IC50 (HEPG2TOX_HILL_SLOPE 5.65, HEPG2TOX_R_SQUARED 0.964, PBLUC_HILL_SLOPE 4.27, PBLUC_R_SQUARED 0.168, read-out: LUCIFERASE INFECTION ASSAY - IC50): 4.81 µM
44 | O=C(Nc1ccc2c(c1)OCO2)c1cnc(N2CCN(Cc3ccc(Cl)cc3)C2=O)o1 | > 10 |  | IC50 (PBLUC_HILL_SLOPE 1.65, PBLUC_R_SQUARED 0.722, read-out: LUCIFERASE INFECTION ASSAY - IC50): 3.79 µM
45 | CCN(CC)C(=O)c1ccc(Nc2nc(C(F)(F)F)nc3ccccc23)cc1 | > 10 |  | IC50 (HEPG2TOX_HILL_SLOPE 3.04, HEPG2TOX_R_SQUARED 0.82, PBLUC_HILL_SLOPE 1.45, PBLUC_R_SQUARED 0.471, read-out: LUCIFERASE INFECTION ASSAY - IC50): 5.81 µM
